Experimental data from US20100190834A1, “COMPOSITION FOR OPHTALMIC DISEASE ASSOCIATED WITH HYPOXIA OR ISCHEMIA” (R-TECH UENO, LTD., priority 2007, published 2010).
Marks after values point to notes of the source that are not given here.

Test system: oxygen-induced retinopathy model mouse
Assay: Oxygen-induced retinopathy model mouse (model of retinopathy of prematurity), retina flat mount analysis
Assay type: in vivo, C57BL/6N mouse
Conditions: for abnormal angiogenesis region (%) / normal blood vessel region (%): average, p < 0.05 vs medium; for avascular region (result in words) / effect on abnormal angiogenesis (result in words): summary of Table 1 and Table 2, compared with medium group
Experimental: A model experiment of retinopathy of prematurity, which is an ophthalmic disease associated with hypoxia or ischemia, was performed based on a quantitative analysis method of oxygen-induced retinopathy model mouse (Experimental Eye Research 84 (2007) 529-536).
The date of birth of mouse was taken as day 0 of age. On day 7 of age, the mouse was placed in a high oxygen concentration breeding device together with the mother mouse and bred under high oxygen conditions (oxygen concentration 75±5%) up to day 12 of age. On day 12 of age, the high oxygen concentration breeding was terminated and the mouse was immediately placed under general breeding with intraperitoneal administration of the medium or test solution 1 twice a day for 7 days. On day 19 of age, retina flat mount was prepared from 4 mice out of the litter.
The mice were anesthetized by intraperitoneal administration of nembutal (1/10-fold diluted, 5 mg/mL) at 0.1 mL/mouse. The thoracic cavity was opened, and 1 mL of fluorescein isothiocyanate-dextran (FITC-dextran 20 mg/mL, FD2000S-1G, manufactured by SIGMA) was perfused from the heart.
After perfusion, the eyeball was immediately isolated, and fixed with 4% para-formaldehyde for 3-4 hr. The eyeball was anatomized to isolate retina, which as developed on a slide glass to prepare a flat mount. The whole retina area, avascular region and abnormal angiogenesis region were encircled with a stylus pen (CTE-640/S1, WACOM FVO) under a fluorescence microscope (ECLIPSE 80i, manufactured by Nikon), and measured using an analysis soft (WinROOF ver. 5.7.0, MITAMI Cor.), based on which the normal blood vessel region and abnormal angiogenesis region were calculated and compared.
normal blood vessel region (%): [{(whole retina area)−(area of avascular region)}/(whole retina area)]×100
abnormal angiogenesis region (%): {(abnormal angiogenesis region)/(whole retina area)}×100
In the same manner as in Experimental Example 1 except that test solution 2 was administered once a day, test solution 2 was intraperitoneally administered to model mouse for 7 days, and the normal blood vessel region and abnormal angiogenesis region thereof were measured.

[1] = test solution 1 (0.01 mg/mL) intraperitoneal twice a day for 7 days from day 12 of age, retina flat mount on day 19, 12 eyes
[2] = test solution 2 (0.01 mg/mL) intraperitoneal once a day for 7 days, 18 eyes

| SMILES | abnormal angiogenesis region (%) [1] | normal blood vessel region (%) [1] | avascular region (result in words) | effect on abnormal angiogenesis (result in words) | abnormal angiogenesis region (%) [2] | normal blood vessel region (%) [2] |
| --- | --- | --- | --- | --- | --- | --- |
| CC(=O)Nc1nc(CCc2ccc(CC(=O)NN)cc2)cs1 [test substance 1, N-{4-[2-(4-hydrazinocarbonylmethylphenyl)ethyl]-1,3-thiazol-2-yl}acetamide] | 7.04* % | 93.44* % | a decrease in the avascular region | a suppressive effect on abnormal angiogenesis | – | – |
| CC(=O)Nc1nc(CCc2ccc(CCNC(=N)N)cc2)cs1 [test substance 2, N-(4-{2-[4-(2-{[amino(imino)methyl]amino}ethyl)phenyl]ethyl}-1,3-thiazol-2-yl)acetamide] | – | – | a decrease in the avascular region | a suppressive effect on abnormal angiogenesis | 6.79* % | 94.69* % |
